Test results published in patent US20260297128A1, “PEPTOID COMPOSITIONS TARGETING RAS PROTEINS AND METHODS OF TREATMENT OF CANCER USING THE SAME” (University of Houston System, priority 2023, published 2026).
Non-standard residues stand in square brackets, D forms with d. Residues, ends and D or L forms follow the SMILES beside them. *: point of attachment. X2 = COc1ccc(CN(CC(=O)N(CCCOC(C)C)CC(=O)*)C(=O)CCC(=O)c2cccs2)cc1; N(4-MeOBn)Gly = COc1ccc(CNCC(=O)O)cc1; N((CH2)3OiPr)Gly = CC(C)OCCCNCC(=O)O; Stearoyl = CCCCCCCCCCCCCCCCCC(=O)*; Palmitoyl = CCCCCCCCCCCCCCCC(=O)*; Myristoyl = CCCCCCCCCCCCCC(=O)*; Gly(N-cHex) = O=C(O)CNC1CCCCC1; X1 = O=C(CCC(=O)*)c1cccs1; Nlys = NCCCCNCC(=O)O; Nme = COCCNCC(=O)O

Experiments:
H441 cells [1] = assay: MTS cell viability assay; format: cell-based; details: H441 (KRASG12V); vs PKR1
Description: Three cancer cell lines (H441, H358, and H1993) harboring KRAS G12V, KRAS G12C, and WT KRAS, respectively, were subjected to treatment with the fatty acid conjugated-PKR1. […] FIGS. 6A-6C are graphical representations of the effects of the fatty acid conjugated PKR1 derivatives on cell survival and proliferation of (A) H441, (B) H358, and (C) H1993 cell lines. FIG. 6D presents the IC50 values of fatty acid conjugated PKR1 derivatives in H441, H1993, and H358 cell lines. […] As KRAS is predominant in the membrane consisting of unsaturated fatty acids, conjugating unsaturated fatty acids to PKR1 can facilitate its anchoring onto the membrane, thereby improving efficacy.
To examine the capacity of PKR1 derivatives as broad-spectrum KRAS inhibitors, MTS assays were conducted in various types of cell lines representing different cancer types, KRAS mutations, and KRAS gene zygosity (Table 1). IC50 values for each cell line were obtained from the MTS assay with PKR1-C16 treatment.

H441 cells [2] = assay: Cell viability, single and combination treatment with MEK/ERK inhibitors; format: cell-based; details: Homo sapiens, NCI-H441; single treatment, 3 D incubation; heterozygous KRAS G12V
Description: Provided herein are pan-KRAS inhibitors that can enhance the sensitivity of heterozygous KRAS mutant cells to KRAS downstream inhibitors, thereby overcoming limitations in their use for cancer therapy. FIG. 11A is an illustration presenting that heterozygous KRAS mutant cells are resistant to the inhibition of KRAS downstream signaling while homozygous KRAS mutant cells are sensitive to such inhibition, therefore blocking wild type KRAS potentially re-sensitizes the heterozygous KRAS mutant cells to the inhibition of KRAS downstream signaling. Cell viability of H441 cells harboring heterozygous KRAS G12V were assessed in combination treatment with PKR1-C16. FIG. 11B is a graphical representation presenting the cell viability of H441 harboring heterozygous KRAS G12V with co-treatments of Trametinib (upper panel) and Ulixertinib with PKR1-C16 (lower panel). […] Concentration gradients of Trametinib and Ulixertinib were co-treated with 1, 3, 5, and 7 μM of PKR1-C16, respectively. […] Blocking WT KRAS enables the re-sensitization of heterozygous KRAS mutant cells to the inhibitors of KRAS downstream signaling.

H2122 cells = details: homozygous KRAS G12C (H2122) vs heterozygous KRAS G12C (H23); cited from earlier work

Row | IC50 (H441 cells [2]) [µM] | SMILES | increase in potency (H441 cells [1]) | potency in H2122 compared with H23 cells (H2122 cells)
1 |  | CCCCCCCCCCCCCC(=O)NCCCC[C@H](NC(=O)[C@H](C)NC(=O)CN(CCOC)C(=O)CN(CCCCN)C(=O)CN(CCCCN)C(=O)CN(C(=O)CN(CCCOC(C)C)C(=O)[C@H](CCCCNC(=O)CN(CCCOC(C)C)C(=O)CN(Cc1ccc(OC)cc1)C(=O)CCC(=O)c1cccs1)NC(=O)CN(CCCOC(C)C)C(=O)CN(Cc1ccc(OC)cc1)C(=O)CCC(=O)c1cccs1)C1CCCCC1)C(N)=O [PKR1-C14] (X1-[N(4-MeOBn)Gly][N((CH2)3OiPr)Gly]K(X2)[N((CH2)3OiPr)Gly][Gly(N-cHex)][Nlys][Nlys][Nme]AK(Myristoyl)-NH2) | over 25 fold | 
2 |  | CCCCCCCCCCCCCCCC(=O)NCCCC[C@H](NC(=O)[C@H](C)NC(=O)CN(CCOC)C(=O)CN(CCCCN)C(=O)CN(CCCCN)C(=O)CN(C(=O)CN(CCCOC(C)C)C(=O)[C@H](CCCCNC(=O)CN(CCCOC(C)C)C(=O)CN(Cc1ccc(OC)cc1)C(=O)CCC(=O)c1cccs1)NC(=O)CN(CCCOC(C)C)C(=O)CN(Cc1ccc(OC)cc1)C(=O)CCC(=O)c1cccs1)C1CCCCC1)C(N)=O [PKR1-C16] (X1-[N(4-MeOBn)Gly][N((CH2)3OiPr)Gly]K(X2)[N((CH2)3OiPr)Gly][Gly(N-cHex)][Nlys][Nlys][Nme]AK(Palmitoyl)-NH2) | over 25 fold | 
3 |  | CCCCCCCCCCCCCCCCCC(=O)NCCCC[C@H](NC(=O)[C@H](C)NC(=O)CN(CCOC)C(=O)CN(CCCCN)C(=O)CN(CCCCN)C(=O)CN(C(=O)CN(CCCOC(C)C)C(=O)[C@H](CCCCNC(=O)CN(CCCOC(C)C)C(=O)CN(Cc1ccc(OC)cc1)C(=O)CCC(=O)c1cccs1)NC(=O)CN(CCCOC(C)C)C(=O)CN(Cc1ccc(OC)cc1)C(=O)CCC(=O)c1cccs1)C1CCCCC1)C(N)=O [PKR1-C18] (X1-[N(4-MeOBn)Gly][N((CH2)3OiPr)Gly]K(X2)[N((CH2)3OiPr)Gly][Gly(N-cHex)][Nlys][Nlys][Nme]AK(Stearoyl)-NH2) | over 25 fold | 
4 | 10.4 | CC(=O)Nc1cccc(-n2c(=O)n(C3CC3)c(=O)c3c(Nc4ccc(I)cc4F)n(C)c(=O)c(C)c32)c1 [Trametinib, trametinib] |  | higher potency in H2122 cells
5 | 17 | CC(C)Nc1cc(-c2c[nH]c(C(=O)N[C@H](CO)c3cccc(Cl)c3)c2)c(Cl)cn1 [Ulixertinib, ulixertinib] |  | higher potency in H2122 cells
